Data from patent publication US6538029B1, “Methods for treatment of renal cell carcinoma” (Cell Pathways, priority 2002, dated 2003).
Counter-ions that a name gives are not always drawn. Like-named read-outs stand apart in the source and are kept apart here.

Key:
PDE10 from 786-O = PDE10 from 786-O (Homo sapiens, UniProt Q9Y233); assay: Inhibition and kinetics of PDE10 from 786-O (pooled fractions of the center peak); format: biochemical; conditions: IC50 on PDE10 from 786-O (inhibition of cGMP PDE activity), pooled center-peak fractions; FIG. 8, 9
Experimental: (§1) Fractions were pooled from a 786-O profile from the center peak.
as §1
(§2) Protein assays were determined using the Bio-Rad DC Protein Assay. A nonlinear regression to the Michalis-Menten equation in Prism was used to determine the Km and Vmax.
as §2

786-O cells [1] = assay: Apoptosis on 786-O cells (Roche Cell Death Assay); format: cell-based, human; conditions: Homo sapiens, 786-0; 48 hours with drug; read-out: IC50 for induction of apoptosis in the 786-O cell line
Experimental: Testing of PDE10-Inhibiting Compounds for Apoptosis on Renal Carcinoma (786-O) Cells. […] After 24 hours, the media was removed and the same media containing the drug was added to the cells (0.1% DMSO final concentration). After 48 hours, apoptosis was detected using the Roche Cell Death Assay.

786-O cells [2] = format: cell-based; conditions: Homo sapiens, 786-0, 144 h; 6 days with drug, sulforhodamine B
Experimental: Testing of Neoplastic Cell Growth Inhibition of PDE10-Inhibiting Compounds on Renal Cell Carcinoma (786-O) Cells. […] After 24 hours, the media was removed, and the same media containing the drug was added to the cells (0.1% DMSO final concentration).

renal cell carcinoma = assay: Human clinical study in locally advanced or metastatic renal cell cancer; format: in vivo
Experimental: Patients were treated with 400 mg daily (200 mg twice daily) and continued at this dose throughout the study, provided no intolerable toxicity or disease progression occurred. Disease response was assessed by physical examination, chest x-ray and MRI or CT scan every eight weeks.
Nineteen patients with heavily pre-treated advanced, progressive renal cell carcinoma were entered into the study. […] The patients were on drug daily for a minimum of eight weeks.
The adverse events, which were reported (regardless of relationship), were of the nature and severity expected in this patient population.

PDE5 = target: T1, PDE5 (Homo sapiens, UniProt O76074); assay: cGMP PDE inhibition, PDE5; format: biochemical
T1 construct: partially purified cGMP-specific PDE isolated from HT-29 cells; endogenous in cells; host or cells: HT-29 cells (partially purified enzyme)
Description: Compounds of this invention are also PDE2 and PDE5 inhibitors as taught in part U.S. patent application Ser. No. 09/046,739 filed Mar. 24, 1998, now abandoned. Compounds can be tested for inhibitory effect on phosphodiesterase activity using either the enzyme isolated from any tumor cell line such as HT-29 or SW-480. […] (Thompson, W. J., Teraski, W. L., Epstein, P. M., Strada, S. J., Advances in Cyclic Nucleotide Research, 10:69-92, 1979, which is incorporated herein by reference). In brief, asolution of defined substrate ^3H-cGMP specific activity (0.2 μM; 100,000 cpm; containing 40 mM Tris-HCl (pH 8.0), 5 mM MgCl2 and 1 mg/ml BSA) is mixed with the drug to be tested in a total volume of 400μl. The mixture is incubated at 30° C. for 10 minutes with partially purified cGMP-specific PDE isolated from HT-29 cells. Reactions are terminated, for example, by boiling the reaction mixture for 75 seconds. After cooling on ice, 100 μl of 0.5 mg/ml snake venom (O. Hannah venom available from Sigma) is added and incubated for 10 min at 30° C. […] The amount of radioactivity in the breakthrough and the wash from the columns in then measured with a scintillation counter. The degree of PDE5 inhibition is determined by calculating the amount of radioactivity in drug-treated reactions and comparing against a control sample (a reaction mixture lacking the tested compound).

PDEI = assay: PDE inhibition, PDEI (similar protocols); format: biochemical
PDE4 = assay: PDE inhibition, PDE4 (similar protocols); format: biochemical
[3] = Seven-day dose-range finding study in rats; format: in vivo; conditions: seven days
28-day study in rats = format: in vivo
Experimental: A 28-day study in rats was also carried out at 0, 50, 500 and 2000 mg/kg/day.

[4] = 91-day long-term safety assessment study in rats; format: in vivo
Description: These changes were not associated with any gross clinical abnormality.

[5] = 91-day oral study in dogs; format: in vivo
[6] = Single, escalating dose normal human volunteer clinical trial; format: in vivo; conditions: normal human volunteers, oral single escalating dose, any dose (50 mg-700 TDD)
[7] = Phase I trial in patients with a range of solid tumors; format: in vivo
Experimental: Cycles were repeated without a treatment-free interval. Doses ranged from 100 to 800 mg/day.

[8] = rat, in vivo
[9] = dog, in vivo
Experimental: (§3) Therefore, these dogs were subsequently administered seven consecutive doses of 1000 mg/kg/day.

[10] = Acute toxicity study in rats; conditions: rat, in vivo
[11] = Acute and seven-dose toxicity in dogs (capsules); conditions: both, dog, in vivo, po, 1000 mg/kg
Experimental: as §3

[12] = 28 days, 50, 500 and 2000 mg/kg/day

Chain of PDE10 from 786-O (Q9Y233 290-1055 limits assumed): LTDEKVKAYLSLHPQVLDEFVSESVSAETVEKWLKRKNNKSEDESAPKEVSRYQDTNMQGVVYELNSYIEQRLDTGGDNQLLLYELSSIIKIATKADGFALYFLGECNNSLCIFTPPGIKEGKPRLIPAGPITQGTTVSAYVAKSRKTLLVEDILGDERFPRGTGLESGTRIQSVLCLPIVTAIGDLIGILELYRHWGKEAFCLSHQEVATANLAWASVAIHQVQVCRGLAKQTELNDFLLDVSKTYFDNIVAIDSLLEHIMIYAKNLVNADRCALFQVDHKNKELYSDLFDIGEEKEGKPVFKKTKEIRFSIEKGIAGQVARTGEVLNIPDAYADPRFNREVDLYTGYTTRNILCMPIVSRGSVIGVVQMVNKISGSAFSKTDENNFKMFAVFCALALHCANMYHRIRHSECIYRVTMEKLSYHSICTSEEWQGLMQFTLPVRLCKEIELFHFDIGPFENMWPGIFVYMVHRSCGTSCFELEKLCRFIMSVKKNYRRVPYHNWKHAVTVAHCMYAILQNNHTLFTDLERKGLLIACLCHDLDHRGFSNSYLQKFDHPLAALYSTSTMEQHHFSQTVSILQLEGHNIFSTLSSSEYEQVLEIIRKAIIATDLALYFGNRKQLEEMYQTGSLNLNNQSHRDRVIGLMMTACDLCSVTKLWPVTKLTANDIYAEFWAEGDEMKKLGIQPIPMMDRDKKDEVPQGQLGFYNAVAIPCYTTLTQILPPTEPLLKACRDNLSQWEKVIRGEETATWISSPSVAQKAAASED

`CC1=C(CC(=O)NCc2ccccc2)c2cc(F)ccc2C1=Cc1ccncc1` [Compound 38, (Z)-5-Fluoro-2-methyl-(4-pyridylidene)-3-(N-benzyl)indenylacetamide Hydrochloride] showed an IC50 (PDE10 from 786-O) of 3.7 µM, an IC50 (786-O cells [1]) of 1 µM and an IC50 (786-O cells [2]) of 1.1 µM. The “Serious Adverse Events due to the drug” value (renal cell carcinoma; 400 mg daily, renal cell carcinoma patients) was “No Serious Adverse Event due to the drug was reported”, the “Patients who achieved stable disease” value (renal cell carcinoma; interim evaluation of 16 evaluable patients, 400 mg daily (200 mg twice daily), minimum of eight weeks) was “six” and the IC50 (PDE5) was 4 µM. For the same compound, the IC50 (PDEI) was 3 µM, the IC50 (PDE4) was 6 µM and the Signs of toxicity ([3]; 50 mg/kg/day) was “no observable signs of toxicity”. The Treatment-related effects ([3]; 500 mg/kg/day) was “an increase in absolute and relative liver weights in female rats”, the Treatment-related effects ([3]; 2000 mg/kg/day) was “labored breathing and/or abnormal respiratory sounds, decreased weights gains and food consumption in male rats, and increased liver weights in female rats” and the “Hematology, blood chemistry, microscopic pathology” value ([3]; any dose level (50, 500, 2000 mg/kg/day)) was “No hematological or blood chemistry changes nor any microscopic pathology changes”. For the same compound, the “Macroscopic tissue changes at necropsy” value (28-day study in rats; 28 days) was “No macroscopic tissue changes”, the Liver weights (28-day study in rats; 28 days, 2000 mg/kg/day) was “statistically significant increase” and the Thyroid weights (28-day study in rats; 28 days, 2000 mg/kg/day) was “statistically significant increases”. The “Body weight changes, ophthalmoscopic examinations, hematological and blood chemistry values, urinalysis” value (28-day study in rats; [12]) was “unremarkable”, the Clinical observations (28-day study in rats; [12]) was “no abnormal clinical observations” and the “Histopathological evaluation of tissues” value (28-day study in rats; 28 days, generally a small number of animals at 2000 mg/kg/day, one female at 500 mg/kg/day) was “traces of follicular cell hypertrophy, increased numbers of mitotic figures (suggestive of possible cell proliferation) in the thyroid gland and mild centrilobular hypertrophy in the liver”. For the same compound, the “Slight liver and thyroid increases” value (28-day study in rats; 28 days, lower doses) was “not statistically significant”, the “Clinical biochemistry and hematology” value ([4]; 91 days) was “no changes” and the Microscopic findings ([4]; 91 days) was “slight hepatocellular hypertrophy at 200 and 500 mg/kg/day groups, follicular cell hypertrophy at 500 mg/kg/day and increase in accumulation of hyalin droplets in the kidneys at 200 and 500 mg/kg/day group”. The Organ weights ([4]; 91 days, males and females at 200 and 500 mg/kg/day) was “dose-related trend to increased liver and thyroid/parathyroid weights”, the Toxicological effects ([4]; oral, 91 consecutive days, 50, 200 and 500 mg/kg/day) was “did not produce any major toxicological effects” and the “Microscopic alterations (liver)” value ([5]; 91 days) was “no microscopic alterations”. For the same compound, the Tolerability ([5]; 91 days) was “well tolerated”, the Feces ([5]; 91 days, 150 and 300 mg/kg/day groups) was “Orange discoloration of the feces” and the Body weights ([5]; 91 days, highest dose group) was “Slightly lowered body weights”. For the same compound, the Liver weights ([5]; 91 days, highest dose group) was “increased liver weights”, the Toxicological effects ([5]; oral, 91 consecutive days, 50, 150 and 300 mg/kg/day) was “no toxicological effects” and the Side effects [6] was “no significant side effects”. For the same compound, the Tolerability of therapy ([7]; 21 patients, orally twice daily for 28 consecutive days, 100 to 800 mg/day) was “well tolerated overall”, the Maximum tolerated dose ([7]; 100 to 800 mg/day) was “not reached” and the Toxicity ([7]; up to 800 mg TDD, orally, twice-daily schedule) was “minimally toxic”. The Body weight gain ([8]; ip, 1000 mg/kg) was “reduced body weight gain”, the Necropsy finding ([8]; ip, 1000 mg/kg) was “mesenteric adhesions seen in some animals” and the Body weight gains ([8]; po, 2000 mg/kg) was “slightly reduced”. For the same compound, the Signs of toxicity ([9]; 1000 mg/kg) was “no signs of toxicity”, the “Signs of drug-related effects” value ([9]; 1000 mg/kg/day) was “At no time in either dosing phase were any obvious signs of drug-related effects observed” and the LD50 ([10]; ip, 1000 mg/kg) was > 1000 mg/kg. The LD50 ([10]; po) was > 2000 mg/kg and the LD50 [11] was > 1000 mg/kg.
